{"source": "patent US20010021697A1", "about": "“METHODS AND COMPOSITIONS FOR THE TREATMENT OF MAMMALIAN INFECTIONS EMPLOYING MEDICAMENTS COMPRISING HYMENOPTERA VENOM, PROTEINAGEOUS OR POLYPEPTIDE COMPONENTS THEREOF, OR ANALOGUES OF SUCH PROTEINACEOUS OR POLYPEPTIDE COMPONENTS” (priority 1987, published 2001)", "format_in_all_cases": "cell-based", "key": {"E. coli G1108E": {"system": "E. coli G1108E", "experiment": "Checkerboard titration synergy assay of melittin analogues with polymyxin B", "conditions": "polymyxin B 6 units/ml, peptide 5 ug/ml, n = 6"}, "[1]": {"system": "E. Coli strain No. G1108E", "experiment": "Checkerboard titration synergy assay of natural melittin and analogue #6 with polymyxin B"}, "[2]": {"system": "kanamycin resistant S. aureus", "experiment": "Checkerboard titration assay for synergy of honeybee venom with antibiotics (OD660 growth curves)"}, "Escherichia coli": {"system": "Escherichia coli", "experiment": "Growth curves with polymyxin B and bumble bee, yellowjacket or baldfaced hornet venom", "conditions": "for optical density, AVERAGE: AVERAGE line; for optical density: single replicates", "method": "The activity of hymenoptera venom other than HBV was also determined for bumblee venom, yellow jacket venom and bald faced hornet venom, as shown below in Tables 8, 9"}, "[3]": {"conditions": "0 hours after innoculation, YJ 5 ug/ml, BF 5 ug/ml, Pol B 3.125 U/ml alone, Pol B 5 U/ml in the combinations"}, "[4]": {"conditions": "0 hours after innoculation, doses of what is present: Pol B 3.125 Units/ml, BB Venom 5 ug/ml"}, "[5]": {"conditions": "0 hours after innoculation, doses of what is present: Pol B 6.25 Units/ml, BB Venom 20 ug/ml"}, "[6]": {"conditions": "2 hours after innoculation, YJ 5 ug/ml, BF 5 ug/ml, Pol B 3.125 U/ml alone, Pol B 5 U/ml in the combinations"}, "[7]": {"conditions": "2 hours after innoculation, doses of what is present: Pol B 3.125 Units/ml, BB Venom 5 ug/ml"}, "[8]": {"conditions": "2 hours after innoculation, doses of what is present: Pol B 6.25 Units/ml, BB Venom 20 ug/ml"}, "[9]": {"conditions": "4 hours after innoculation, YJ 5 ug/ml, BF 5 ug/ml, Pol B 3.125 U/ml alone, Pol B 5 U/ml in the combinations"}, "[10]": {"conditions": "4 hours after innoculation, doses of what is present: Pol B 3.125 Units/ml, BB Venom 5 ug/ml"}, "[11]": {"conditions": "4 hours after innoculation, doses of what is present: Pol B 6.25 Units/ml, BB Venom 20 ug/ml"}}, "note": "“And” between values parts separate entries of the source, which are not always exact repeats. Equal values may be shown once."}
{"substance": "Polymyxin B", "values": [{"measurement": "Optical densities (OD660), mean", "setting": "E. coli G1108E; 0 hours after culture inoculation", "result": ".007"}, {"measurement": "Optical densities (OD660), mean", "setting": "E. coli G1108E; 2 hours after culture inoculation", "result": ".088"}, {"measurement": "Optical densities (OD660), mean", "setting": "E. coli G1108E; 4 hours after culture inoculation", "result": ".470"}, {"measurement": "Optical densities (OD660), mean", "setting": "E. coli G1108E; 6 hours after culture inoculation", "result": ".926"}, {"measurement": "Optical densities (OD660), mean", "setting": "E. coli G1108E; 8 hours after culture inoculation", "result": 1.02}, {"measurement": "Optical densities (OD660), mean", "setting": "E. coli G1108E; 10 hours after culture inoculation", "result": 1.04}, {"measurement": "Optical densities (OD660), mean", "setting": "E. coli G1108E; 12 hours after culture inoculation", "result": 1.06}, {"measurement": "Average optical densities (OD660)", "setting": "[1]; 0 hrs, doses of what is present: Polymyxin B 3 units, peptide 5 ug", "result": ".013"}, {"measurement": "Average optical densities (OD660)", "setting": "[1]; 0 hrs, doses of what is present: Polymyxin B 6 units, peptide 10 ug", "result": ".013"}, {"measurement": "Average optical densities (OD660)", "setting": "[1]; 2 hrs, doses of what is present: Polymyxin B 3 units, peptide 5 ug", "result": ".072"}, {"measurement": "Average optical densities (OD660)", "setting": "[1]; 2 hrs, doses of what is present: Polymyxin B 6 units, peptide 10 ug", "result": ".072"}, {"measurement": "Average optical densities (OD660)", "setting": "[1]; 4 hrs, doses of what is present: Polymyxin B 3 units, peptide 5 ug", "result": ".808"}, {"measurement": "Average optical densities (OD660)", "setting": "[1]; 4 hrs, doses of what is present: Polymyxin B 6 units, peptide 10 ug", "result": ".423"}, {"measurement": "Average optical densities (OD660)", "setting": "[1]; 6 hrs, doses of what is present: Polymyxin B 3 units, peptide 5 ug", "result": 1.06}, {"measurement": "Average optical densities (OD660)", "setting": "[1]; 6 hrs, doses of what is present: Polymyxin B 6 units, peptide 10 ug", "result": ".840"}, {"measurement": "Average optical densities (OD660)", "setting": "[1]; 8 hrs, doses of what is present: Polymyxin B 3 units, peptide 5 ug", "result": 1.08}, {"measurement": "Average optical densities (OD660)", "setting": "[1]; 8 hrs, doses of what is present: Polymyxin B 6 units, peptide 10 ug", "result": ".911"}, {"measurement": "Average optical densities (OD660)", "setting": "[1]; 12 hrs, doses of what is present: Polymyxin B 3 units, peptide 5 ug", "result": 1.15}, {"measurement": "Average optical densities (OD660)", "setting": "[1]; 12 hrs, doses of what is present: Polymyxin B 6 units, peptide 10 ug", "result": ".930"}, {"measurement": "susceptibility to polymyxin B compared with the parent strain", "setting": "[2]", "result": "more susceptible to polymyxin B than the parent strain"}, {"measurement": "MEAN A660", "setting": "[2]; POLY B = 12.5, HBV = 0, T0", "result": 0.009}, {"measurement": "MEAN A660", "setting": "[2]; POLY B = 12.5, HBV = 0, T2", "result": 0.068}, {"measurement": "MEAN A660", "setting": "[2]; POLY B = 12.5, HBV = 0, T4", "result": 0.266}, {"measurement": "MEAN A660", "setting": "[2]; POLY B = 12.5, HBV = 0, T6", "result": 0.640}, {"measurement": "MEAN A660", "setting": "[2]; POLY B = 12.5, HBV = 0, T8", "result": 0.826}, {"measurement": "MEAN A660", "setting": "[2]; POLY B = 12.5, HBV = 0, T12", "result": 0.976}, {"measurement": "MEAN A660", "setting": "[2]; POLY B = 12.5, HBV = 0, T24", "result": 0.962}, {"measurement": "MEAN A660", "setting": "[2]; POLY B = 25, HBV = 0, T0", "result": 0.009}, {"measurement": "MEAN A660", "setting": "[2]; POLY B = 25, HBV = 0, T2", "result": 0.068}, {"measurement": "MEAN A660", "setting": "[2]; POLY B = 25, HBV = 0, T4", "result": 0.243}, {"measurement": "MEAN A660", "setting": "[2]; POLY B = 25, HBV = 0, T6", "result": 0.629}, {"measurement": "MEAN A660", "setting": "[2]; POLY B = 25, HBV = 0, T8", "result": 0.835}, {"measurement": "MEAN A660", "setting": "[2]; POLY B = 25, HBV = 0, T12", "result": 1.008}, {"measurement": "MEAN A660", "setting": "[2]; POLY B = 25, HBV = 0, T24", "result": 1.048}, {"measurement": "MEAN A660", "setting": "[2]; POLY B = 50, HBV = 0, T0", "result": 0.009}, {"measurement": "MEAN A660", "setting": "[2]; POLY B = 50, HBV = 0, T2", "result": 0.068}, {"measurement": "MEAN A660", "setting": "[2]; POLY B = 50, HBV = 0, T4", "result": 0.208}, {"measurement": "MEAN A660", "setting": "[2]; POLY B = 50, HBV = 0, T6", "result": 0.376}, {"measurement": "MEAN A660", "setting": "[2]; POLY B = 50, HBV = 0, T8", "result": 0.567}, {"measurement": "MEAN A660", "setting": "[2]; POLY B = 50, HBV = 0, T12", "result": 0.841}, {"measurement": "MEAN A660", "setting": "[2]; POLY B = 50, HBV = 0, T24", "result": 0.968}, {"measurement": "MEAN A660", "setting": "[2]; POLY B = 100, HBV = 0, T0", "result": 0.009}, {"measurement": "MEAN A660", "setting": "[2]; POLY B = 100, HBV = 0, T2", "result": 0.068}, {"measurement": "MEAN A660", "setting": "[2]; POLY B = 100, HBV = 0, T4", "result": 0.243}, {"measurement": "MEAN A660", "setting": "[2]; POLY B = 100, HBV = 0, T6", "result": 0.629}, {"measurement": "MEAN A660", "setting": "[2]; POLY B = 100, HBV = 0, T8", "result": 0.835}, {"measurement": "MEAN A660", "setting": "[2]; POLY B = 100, HBV = 0, T12", "result": 1.008}, {"measurement": "MEAN A660", "setting": "[2]; POLY B = 100, HBV = 0, T24", "result": 1.048}, {"measurement": "optical density, AVERAGE", "setting": "Escherichia coli; [3]", "result": ".038"}, {"measurement": "optical density", "setting": "Escherichia coli; [3]", "result": ".038"}, {"measurement": "optical density, AVERAGE", "setting": "Escherichia coli; [4]", "result": ".030"}, {"measurement": "optical density", "setting": "Escherichia coli; [4]", "result": ".030"}, {"measurement": "optical density, AVERAGE", "setting": "Escherichia coli; [5]", "result": ".030"}, {"measurement": "optical density", "setting": "Escherichia coli; [5]", "result": ".030"}, {"measurement": "optical density, AVERAGE", "setting": "Escherichia coli; [6]", "result": ".480"}, {"measurement": "optical density", "setting": "Escherichia coli; [6]", "result": ".477 and .482"}, {"measurement": "optical density, AVERAGE", "setting": "Escherichia coli; [7]", "result": ".649"}, {"measurement": "optical density", "setting": "Escherichia coli; [7]", "result": ".654 and .642 and .652"}, {"measurement": "optical density, AVERAGE", "setting": "Escherichia coli; [8]", "result": ".023"}, {"measurement": "optical density", "setting": "Escherichia coli; [8]", "result": ".022 (2×) and .024"}, {"measurement": "optical density, AVERAGE", "setting": "Escherichia coli; [9]", "result": 1.03}, {"measurement": "optical density", "setting": "Escherichia coli; [9]", "result": 1.03}, {"measurement": "optical density, AVERAGE", "setting": "Escherichia coli; [10]", "result": 1.02}, {"measurement": "optical density", "setting": "Escherichia coli; [10]", "result": "1.03 and 1.02 (2×)"}, {"measurement": "optical density, AVERAGE", "setting": "Escherichia coli; [11]", "result": ".251"}, {"measurement": "optical density", "setting": "Escherichia coli; [11]", "result": ".102 and .472 and .180"}]}
